Patent US8916526B2, “Flavanone derivative” (National University Corporation Okayama University, priority 2009, dated 2014)
Values after ≈ are worked out from the molar mass of the structure shown.

Key:
[1] = test system: MRSA N315; assay: In vitro infectivity assay (MIC), broth dilution, Exp. Ex. 1-1; format: cell-based, Staphylococcus aureus; settings: MRSA N315, Mueller-Hinton broth, 35° C., 24 hours
Description: (§1) The antibacterial activities were measured based on broth dilution techniques of international standards (Clinical Laboratory Standards Institute: CLSI). The activities were shown by minimum inhibitory concentrations (MICs) determined by inoculating the above-mentioned strains at a concentration of about 10^5 […] into Mueller-Hinton broth (manufactured by Difco) containing 0.85% NaCl in 96-well microplates and incubating the plates at 35° C. for 24 hours. Measurement was carried out three times.
(§2) The antibacterial activities of the compounds of the present invention against various strains such as methicillin-resistant Staphylococcus aureus (MRSA), vancomycin intermediate-resistant Staphylococcus aureus (VISA), methicillin-sensitive Staphylococcus aureus (MSSA), and vancomycin-resistant enterococci (VRE) were examined. Of the bacteria used in MIC measurement in this test example, clinical bacteria of MRSA (OM481 strain and OM584 strain) were supplied from Okayama University Hospital (Japan). An MRSA strain N315, a vancomycin intermediate-resistant Staphylococcus aureus (VISA) strain Mu50, and a methicillin-sensitive Staphylococcus aureus (MSSA) strain FDA 209P were used as controls. Vancomycin-resistant enterococcus (VRE) strains NCTC 12201 and FN-1 were supplied from the National Institute of Infectious Disease (Japan).

[2] = test system: MRSA OM481; assay: as above; format: cell-based, Staphylococcus aureus; settings: MRSA OM481, Mueller-Hinton broth, 35° C., 24 hours
Description: as §1, §2

[3] = test system: MRSA OM58; assay: as above; format: cell-based, Staphylococcus aureus; settings: MRSA OM58, Mueller-Hinton broth, 35° C., 24 hours
Description: as §1, §2

[4] = test system: MSSA FDA 209P; assay: as above; format: cell-based, Staphylococcus aureus; settings: MSSA FDA 209P, Mueller-Hinton broth, 35° C., 24 hours
Description: as §1, §2

[5] = test system: VISA Mu50; assay: as above; format: cell-based, Staphylococcus aureus; settings: VISA Mu50; Mueller-Hinton broth, 35° C., 24 hours
Description: as §1, §2

[6] = test system: VRE FN-1; assay: as above; format: cell-based, enterococci; settings: VRE FN-1; Mueller-Hinton broth, 35° C., 24 hours
Description: as §1, §2

[7] = test system: VRE NCTC12201; assay: as above; format: cell-based, enterococci; settings: VRE NCTC12201; Mueller-Hinton broth, 35° C., 24 hours
Description: as §1, §2

[8] = biological target: T1, DNA gyrase of Escherichia coli (Escherichia coli, UniProt P0AES4+P0AES6); assay: DNA gyrase inhibition (supercoiling assay kit), Exp. Ex. 1-2; format: biochemical; settings: E. coli DNA gyrase supercoiling, relaxed pBR322, 37° C., 30 minutes
T1 construct: purchased John Innes Enterprises #K0001
Description: (§3) As a kit for measurement of DNA gyrase of Escherichia coli, a product purchased from John Innes Enterprises (Gyrase Supercoiling assay kit #K0001) was used. Relaxed DNA was modified with gyrase into supercoiled DNA, and reaction products were separated by electrophoresis depending on the sizes of the molecular weights to examine anti-gyrase effects (IC50). One unit (1 U) of DNA gyrase and […] of relaxed pBR322 DNA were added to […] of the reaction solution, and the mixture was allowed to react at 37° C. for 30 minutes in the presence of 35 mM Tris-HCl (pH 7.5), 24 mM KCl, 4 mM MgCl2, 2 mM DTT, 1.8 mM spermidine, 1 mM ATP, 6.5% (w/v) glycerol, and 0.1 mg/ml BSA. The reactions were stopped using […] of a reaction stop solution (40% sucrose, 100 mM Tris-HCl (pH 7.5), 1 mM EDTA, 0.5 mg/ml bromophenol blue).

[9] = test system: Methicillin sensitive S. aureus 209P; assay: In vitro infectivity assay (MIC), Exp. Ex. 2-1; format: cell-based, Staphylococcus aureus; settings: Staphylococcus aureus, 209P / MSSA; Gram-positive; microdilution, MIC after 24 h; read-out: MIC MSSA 209P
Description: as §1
as §2, with “vancomycin-resistant enterococci (VRE),” for “methicillin-resistant Staphylococcus aureus (MRSA),”, “(VISA), methicillin-resistant Staphylococcus aureus (MRSA), and” for “(VISA),”, “(MSSA)” for “(MSSA), and vancomycin-resistant enterococci (VRE)”

[10] = test system: Methicillin-resistant S. aureus COL; assay: In vitro infectivity assay (MIC), Exp. Ex. 2-1; format: cell-based, Staphylococcus aureus; settings: Staphylococcus aureus, MRSA; Gram-positive; microdilution, MIC after 24 h
Description: as §1
as §2, with “vancomycin-resistant enterococci (VRE),” for “methicillin-resistant Staphylococcus aureus (MRSA),”, “(VISA), methicillin-resistant Staphylococcus aureus (MRSA), and” for “(VISA),”, “(MSSA)” for “(MSSA), and vancomycin-resistant enterococci (VRE)”

[11] = test system: Methicillin-resistant S. aureus N315; assay: In vitro infectivity assay (MIC), Exp. Ex. 2-1; format: cell-based, Staphylococcus aureus; settings: Staphylococcus aureus, MRSA; Gram-positive; microdilution, MIC after 24 h; read-out: MIC MRSA N315
Description: as §1
as §2, with “vancomycin-resistant enterococci (VRE),” for “methicillin-resistant Staphylococcus aureus (MRSA),”, “(VISA), methicillin-resistant Staphylococcus aureus (MRSA), and” for “(VISA),”, “(MSSA)” for “(MSSA), and vancomycin-resistant enterococci (VRE)”

[12] = test system: Methicillin-resistant S. aureus OM481; assay: In vitro infectivity assay (MIC), Exp. Ex. 2-1; format: cell-based, Staphylococcus aureus; settings: Staphylococcus aureus, MRSA; Gram-positive; microdilution, MIC after 24 h; read-out: MIC MRSA OM481
Description: as §1
as §2, with “vancomycin-resistant enterococci (VRE),” for “methicillin-resistant Staphylococcus aureus (MRSA),”, “(VISA), methicillin-resistant Staphylococcus aureus (MRSA), and” for “(VISA),”, “(MSSA)” for “(MSSA), and vancomycin-resistant enterococci (VRE)”

[13] = test system: Methicillin-resistant S. aureus OM584; assay: In vitro infectivity assay (MIC), Exp. Ex. 2-1; format: cell-based, Staphylococcus aureus; settings: Staphylococcus aureus, MRSA; Gram-positive; microdilution, MIC after 24 h; read-out: MIC MRSA OM584
Description: as §1
as §2, with “vancomycin-resistant enterococci (VRE),” for “methicillin-resistant Staphylococcus aureus (MRSA),”, “(VISA), methicillin-resistant Staphylococcus aureus (MRSA), and” for “(VISA),”, “(MSSA)” for “(MSSA), and vancomycin-resistant enterococci (VRE)”

[14] = test system: Streptococcus pneumoniae R6; assay: In vitro infectivity assay (MIC), Exp. Ex. 2-1; format: cell-based; settings: Streptococcus pneumoniae, R6, 24 h, read-out: MIC S. Pneumoniae R6
[15] = test system: Escherichia coli K-12; assay: Antibacterial activity (MIC) against Gram-negative strains, microdilution; format: cell-based; settings: K12, MIC after 24 h, read-out: MIC (Gram-nagative) K-12
Description: as §1

[16] = test system: Pseodomonas aeruginosa PAOI; assay: as above; format: cell-based; settings: MIC after 24 h, read-out: MIC (Gram-nagative) PAO1
Description: as §1

[17] = biological target: T2, E. coli DNA gyrase (Escherichia coli, UniProt P0AES4+P0AES6); assay: DNA gyrase inhibition (supercoiling kit), Exp. Ex. 2-2; format: biochemical
T2 construct: purchased John Innes Enterprises #K0001
Description: as §3, with “1” for “One”

T1 sequence (P0AES4 whole entry, one chain of several): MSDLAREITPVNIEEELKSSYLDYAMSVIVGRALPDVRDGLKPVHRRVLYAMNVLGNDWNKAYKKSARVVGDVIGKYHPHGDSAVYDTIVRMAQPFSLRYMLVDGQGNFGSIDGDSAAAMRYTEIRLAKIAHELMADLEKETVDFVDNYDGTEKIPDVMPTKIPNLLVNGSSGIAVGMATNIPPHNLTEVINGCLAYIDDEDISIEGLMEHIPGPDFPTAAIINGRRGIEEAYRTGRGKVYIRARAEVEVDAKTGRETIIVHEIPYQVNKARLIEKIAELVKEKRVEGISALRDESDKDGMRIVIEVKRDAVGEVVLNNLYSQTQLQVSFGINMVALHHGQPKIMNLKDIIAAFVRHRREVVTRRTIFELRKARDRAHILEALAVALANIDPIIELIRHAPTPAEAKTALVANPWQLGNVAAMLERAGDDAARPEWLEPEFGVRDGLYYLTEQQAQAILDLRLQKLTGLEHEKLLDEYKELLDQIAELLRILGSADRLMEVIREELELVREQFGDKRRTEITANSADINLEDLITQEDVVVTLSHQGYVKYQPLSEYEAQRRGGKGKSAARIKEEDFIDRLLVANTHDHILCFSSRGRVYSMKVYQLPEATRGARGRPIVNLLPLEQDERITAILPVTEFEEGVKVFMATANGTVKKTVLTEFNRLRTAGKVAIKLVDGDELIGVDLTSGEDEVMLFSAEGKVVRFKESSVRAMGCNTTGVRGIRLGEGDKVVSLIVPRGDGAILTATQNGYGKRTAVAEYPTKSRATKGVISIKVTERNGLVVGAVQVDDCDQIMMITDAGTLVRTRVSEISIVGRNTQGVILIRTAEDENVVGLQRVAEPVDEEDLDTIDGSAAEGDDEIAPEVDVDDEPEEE
T2 sequence (P0AES4 whole entry, one chain of several): as above

With O=C(CCc1ccc(O)cc1)O[C@H]1[C@H](Oc2c(-c3ccc(O)c(O)c3)oc3cc(O)cc(O)c3c2=O)O[C@H](CO)[C@@H](O)[C@@H]1OC(=O)CCc1ccc(O)cc1 [Compound 15a, 2-(3′,4′-Dihydroxy)-5,7-dihydroxy-3-β-D-(2″,3″-di-p-hydroxyphenylethylcarboxy)glucosyl-4H-chromen-4-one] the “MIC MRSA N315” value [1] was 4 µg/mL (≈ 5.26 µM), the “MIC MRSA OM481” value [2] was 4 µg/mL (≈ 5.26 µM) and the “MIC MRSA OM58” value [3] was 4 µg/mL (≈ 5.26 µM). For the same molecule, the “MIC MSS 209P” value [4] was 4 µg/mL (≈ 5.26 µM), the “MIC VISA Mu50” value [5] was 4 µg/mL (≈ 5.26 µM) and the “MIC VRE FN-1” value [6] was 8 µg/mL (≈ 10.5 µM). The “MIC VRE NCTC 12201” value [7] was 8 µg/mL (≈ 10.5 µM) and the “Gyrase inhibitory activity IC50” value [8] was 2.54 µg/mL.
CCn1cc(C(=O)O)c(=O)c2cc(F)c(N3CCNCC3)cc21 [Norfloxacin, norfloxacin, reference compound] was tested, and the MIC ([1]; Staphylococcus aureus, read-out: MIC MRSA N315) was 2 µg/mL (≈ 6.26 µM), the MIC ([2]; Staphylococcus aureus, read-out: MIC MRSA OM481) was 128 µg/mL (≈ 401 µM) and the MIC ([3]; Staphylococcus aureus, read-out: MIC MRSA OM58) was 64 µg/mL (≈ 200 µM). The MIC ([4]; Staphylococcus aureus, read-out: MIC MSS 209P) was 0.5 µg/mL (≈ 1.57 µM), the IC50 ([8]; read-out: Gyrase inhibitory activity IC50 (converted)) was 908 nM and the MIC [9] was 0.5 µg/mL (≈ 1.57 µM). It also gave an MIC [10] of 1 µg/mL (≈ 3.13 µM), an MIC [11] of 2 µg/mL (≈ 6.26 µM) and an MIC [12] of 64 µg/mL (≈ 200 µM). It also gave an MIC [13] of 128 µg/mL (≈ 401 µM), an MIC [14] of 0.25 µg/mL (≈ 0.783 µM) and an MIC [15] of 0.25 µg/mL (≈ 0.783 µM). It also gave an MIC [16] of 0.25 µg/mL (≈ 0.783 µM) and an IC50 [17] of 90 nM.
